Source: patent publication US20230165865A1, “HETEROARYLDIHYDROPYRIMIDINE DERIVATIVES AND METHODS OF TREATING HEPATITIS B INFECTIONS” (Janssen Pharmaceutica NV, priority 2018, published 2023)
Like-named read-outs stand apart in the source and are kept apart here.

What was measured:
[1] = tested on: HBV; experiment: Anti-viral assay in HepG2.2.15 cells: anti-HBV activity, HBV DNA in culture medium by qPCR; type: cell-based
Experimental: (§1) HepG2.2.15 (the HepG2.2.15 cell line can be produced by transfection of the HepG2 cell line as described in Sells, Chen, and Acs 1987 (Proc. Natl. Acad. Sci. USA 84: 1005-1009), and the HepG2 cell line is available from ATCC® under number HB-8065™)
(§2) HepG2.2.15 cells were plated into 96-well plate in 2% FBS culture medium at the density of 40,000 cells/well and 5,000cells/well for HBV inhibitory activity and cytotoxicity determination, respectively. After incubation at 37° C., 5% CO2 overnight, cells were treated with medium containing compounds for 6 days with medium and compounds refreshed after 3 days of treatment. Each compound was tested in a 1:3 serial dilutions at 8 different concentrations in triplicate. The highest concentration of the compounds was 10 uM or 1 uM for anti-HBV activity assay and 100 uM for cytotoxicity determination.
The change of HBV DNA level induced by the compounds was assessed by quantitative real-time polymerase chain reaction (qPCR). Briefly, the HBV DNA in the culture medium was extracted using QIAamp 96 DNA Blood Kit according to the manual and then quantified by real-time PCR assay using the primers and probe in the table 1 below.
(§3) EC50 and CC50 values are calculated by the […] PRISM software.

[2] = Cytotoxicity determination in HepG2.2.15 cells (CCK-8 assay); type: cell-based; details: human, 6 days treatment, CCK-8, highest concentration 100 uM
Experimental: as §1, §2
Cell viability was determined by CCK-8 assay. After 6 days of compounds treatment, 20 μl CCK-8 reagents were added to each well of cytotoxicity assay plates. Cell plates were incubated at 37° C., 5% CO2 for 2.5 h. The absorbance at 450 nm wavelength and the absorbance at 630 nm wavelength as reference was measured.
as §3

[3] = HepG2.2.15 cells, 6 days treatment, HBV DNA by qPCR, read-out: EC50
[4] = Hepatitis B virus, HepG2.2.15, 144 h, HepG2.2.15 cells, 6 days treatment, HBV DNA by qPCR, read-out: EC50

| SMILES | EC50 [1, 3] | CC50 at 6 days [2] | EC50 [1, 4] | EC50 ([1]; Hepatitis B virus, HepG2.2.15, 144 h) |
| --- | --- | --- | --- | --- |
| CCOC(=O)C1=C(CN2CCN3C(=S)N([C@H]4CC[C@@H](C(=O)O)C4)CC3C2)NC(c2nccs2)=N[C@H]1c1cccc(F)c1C (single isomer, unassigned) [Compound 24C] | 0.0014 µM | 11.6 µM | – | – |
| CCOC(=O)C1=C(CN2CCN3C(=S)N(CC(C)(C)C(=O)O)C[C@@H]3C2)NC(c2nccs2)=N[C@H]1c1ccc(C)cc1F (single isomer, unassigned) [Compound 25A, 3-(7-((5-(Ethoxycarbonyl)-6-(2-fluoro-4-methylphenyl)-2-(thiazol-2-yl)-3,6-dihydropyrimidin-4-yl)methyl)-3-thioxohexahydroimidazo[1,5-a]pyrazin-2(3H)-yl)-2,2-dimethylpropanoic acid] | – | 31 µM | 0.0916 µM | – |
| CCOC(=O)C1=C(CN2CCN3C(=S)N(CC(C)(C)C(=O)O)CC3C2)NC(c2ncoc2C)=NC1c1cccc(F)c1C (single isomer, unassigned) [Compound 26A, 3-(7-((5-(Ethoxycarbonyl)-6-(3-fluoro-2-methylphenyl)-2-(5-methyloxazol-4-yl)-3,6-dihydropyrimidin-4-yl)methyl)-3-thioxohexahydroimidazo[1,5-a]pyrazin-2(3H)-yl)-2,2-dimethylpropanoic acid] | – | 26.2 µM | 0.0132 µM | – |
| CCOC(=O)C1=C(CN2CCN3C(=S)N(CC(C)C(=O)O)C[C@@H]3C2)NC(c2nccs2)=N[C@H]1c1cccc(F)c1C (single isomer, unassigned) [Compound 27A] | – | 23.6 µM | 0.0048 µM | – |
| CCOC(=O)C1=C(CN2CCN3C(=S)N(CC4(C(=O)O)CCC4)CC3C2)NC(c2nccs2)=N[C@H]1c1cccc(F)c1C (single isomer, unassigned) [Compound 29B] | – | 11.2 µM | 0.0015 µM | – |
| CCOC(=O)C1=C(CN2CCN3C(=S)N(C(C)(C)CC(=O)O)CC3C2)NC(c2nccs2)=N[C@H]1c1cccc(F)c1C (single isomer, unassigned) [Compound 30A] | – | 8.6 µM | 0.005 µM | – |
| COC(=O)C1=C(CN2CCN3C(=S)N(CC(C)(C)C(=O)O)CC3C2)NC(c2ncoc2C)=NC1c1cccc(F)c1C (single isomer, unassigned) [Compound 31A, 3-(7-((6-(3-Fluoro-2-methylphenyl)-5-(methoxycarbonyl)-2-(5-methyloxazol-4-yl)-3,6-dihydropyrimidin-4-yl)methyl)-3-thioxohexahydroimidazo[1,5-a]pyrazin-2(3H)-yl)-2,2-dimethylpropanoic acid] | – | 43.7 µM | 0.015 µM | – |
| CCOC(=O)C1=C(CN2CCN3C(=S)N(C[C@@H](C)C(=O)O)C[C@@H]3C2)NC(c2ncoc2C)=NC1c1cccc(F)c1C (single isomer, unassigned) [Compound 32A, 3-(7-((5-(Ethoxycarbonyl)-6-(3-fluoro-2-methylphenyl)-2-(5-methyloxazol-4-yl)-3,6-dihydropyrimidin-4-yl)methyl)-3-thioxohexahydroimidazo[1,5-a]pyrazin-2(3H)-yl)-2-methylpropanoic acid] | – | 41 µM | 0.0249 µM | – |
| CCOC(=O)C1=C(CN2CCN3C(=S)N(CC(C)(C)C(=O)O)C[C@@H]3C2)NC(c2ncoc2C)=N[C@H]1c1ccc(F)cc1Cl (single isomer, unassigned) [Compound 33A, 3-(7-((6-(2-Chloro-4-fluorophenyl)-5-(ethoxycarbonyl)-2-(5-methyloxazol-4-yl)-3,6-dihydropyrimidin-4-yl)methyl)-3-thioxohexahydroimidazo[1,5-a]pyrazin-2(3H)-yl)-2,2-dimethylpropanoic acid] | – | 37.8 µM | 0.012 µM | – |
| COC(=O)C1=C(CN2CCN3C(=S)N(CC(C)(C)C(=O)O)C[C@@H]3C2)NC(c2ncoc2C)=N[C@H]1c1ccc(F)cc1Cl (single isomer, unassigned) [Compound 34A, 3-(7-((6-(2-Chloro-4-fluorophenyl)-5-(methoxycarbonyl)-2-(5-methyloxazol-4-yl)-3,6-dihydropyrimidin-4-yl)methyl)-3-thioxohexahydroimidazo[1,5-a]pyrazin-2(3H)-yl)-2,2-dimethylpropanoic acid] | – | 47.4 µM | 0.0079 µM | – |
| CCOC(=O)C1=C(CN2CCN3C(=S)N(C)C[C@@H]3[C@H]2C(=O)O)NC(c2nccs2)=N[C@H]1c1cccc(F)c1C (single isomer, unassigned) [Compound 35A] | 0.0479 µM | 77 µM | – | – |
| [2H][C@@]1(c2cccc(F)c2C)N=C(c2nccs2)NC(CN2CCN3C(=S)N(CC(C)(C)C(=O)O)C[C@@H]3C2)=C1C(=O)OCC (single isomer, unassigned) [Compound 36B, 3-(7-((6-Deutero-5-(ethoxycarbonyl)-6-(3-fluoro-2-methylphenyl)-2-(thiazol-2-yl)-3,6-dihydropyrimidin-4-yl)methyl)-3-thioxohexahydroimidazo[1,5-a]pyrazin-2(3H)-yl)-2,2-dimethylpropanoic acid] | – | 23 µM | 0.0026 µM | – |
| CCOC(=O)C1=C(CN2CCN3C(=S)N(CC(C)(C)C(=O)O)C[C@@H]3C2)NC(c2nccs2)=N[C@@H]1c1ccc(F)nc1C (single isomer, unassigned) [Compound 37, 3-(7-((5-(ethoxycarbonyl)-6-(6-fluoro-2-methylpyridin-3-yl)-2-(thiazol-2-yl)-3,6-dihydropyrimidin-4-yl)methyl)-3-thioxohexahydroimidazo[1,5-a]pyrazin-2(3H)-yl)-2,2-dimethylpropanoic acid] | – | ≥ 100 µM | 0.1 µM | – |
| CCOC(=O)C1=C(CN2CCN3C(=S)N(c4ccc(C(=O)O)cc4)CC3C2)NC(c2nccs2)=N[C@H]1c1cccc(F)c1C (stereo in doubt) [Compound 23, 4-(7-((5-(ethoxycarbonyl)-6-(3-fluoro-2-methylphenyl)-2-(thiazol-2-yl)-3,6-dihydropyrimidin-4-yl)methyl)-3-thioxohexahydroimidazo[1,5-a]pyrazin-2(3H)-yl)benzoic acid] | – | 2.6 µM | 0.0046 µM | – |
| CCOC(=O)C1=C(CN2CCN3C(=NC#N)N(CC(C)(C)C(=O)O)CC3C2)NC(c2nccs2)=N[C@H]1c1cccc(F)c1C (stereo partly drawn) [Compound 2, 3-(3-(cyanoimino)-7-(((S)-5-(ethoxycarbonyl)-6-(3-fluoro-2-methylphenyl)-2-(thiazol-2-yl)-3,6-dihydropyrimidin-4-yl)methyl)hexahydroimidazo[1,5-a]pyrazin-2(3H)-yl)-2,2-dimethylpropanoic acid] | – | 55.4 µM | 0.049 µM | – |
| CCOC(=O)C1=C(CN2CCN3C(=S)N(CC4(C(=O)O)CC4)CC3C2)NC(c2nccs2)=NC1c1cccc(F)c1Cl (stereo not shown) [Compound 5, 1-((7-((6-(2-Chloro-3-fluorophenyl)-5-(ethoxycarbonyl)-2-(thiazol-2-yl)-3,6-dihydropyrimidin-4-yl)methyl)-3-thioxohexahydroimidazo[1,5-a]pyrazin-2(3H)-yl)methyl)cyclopropanecarboxylic acid] | – | 11.8 µM | 0.0017 µM | – |
| CCOC(=O)C1=C(CN2CCN3C(=S)N(CC(C)(C)C(=O)O)CC[C@H]3C2)NC(c2nccs2)=N[C@H]1c1cccc(F)c1C [Compound 6, 3-((S)-2-(((S)-5-(ethoxycarbonyl)-6-(3-fluoro-2-methylphenyl)-2-(thiazol-2-yl)-3,6-dihydropyrimidin-4-yl)methyl)-6-thioxohexahydro-2H-pyrazino[1,2-c]pyrimidin-7(6H)-yl)-2,2-dimethylpropanoic acid] | – | 20.5 µM | 0.067 µM | – |
| CCOC(=O)C1=C(CN2CCN3C(=S)N(CC(C)(C)C(=O)O)CC[C@@H]3C2)NC(c2nccs2)=N[C@H]1c1cccc(F)c1C [Compound 6A, 3-((R)-2-(((S)-5-(ethoxycarbonyl)-6-(3-fluoro-2-methylphenyl)-2-(thiazol-2-yl)-3,6-dihydropyrimidin-4-yl)methyl)-6-thioxohexahydro-2H-pyrazino[1,2-c]pyrimidin-7(6H)-yl)-2,2-dimethylpropanoic acid] | – | 11.4 µM | 0.0194 µM | – |
| CCOC(=O)C1=C(CN2CCN3C(=CC#N)N(CC(C)(C)C(=O)O)CC3C2)NC(c2nccs2)=N[C@H]1c1cccc(F)c1C (stereo partly drawn) [Compound 7, 3-(3-(Cyanomethylene)-7-(((S)-5-(ethoxycarbonyl)-6-(3-fluoro-2-methylphenyl)-2-(thiazol-2-yl)-3,6-dihydropyrimidin-4-yl)methyl)hexahydroimidazo[1,5-a]pyrazin-2(3H)-yl)-2,2-dimethylpropanoic acid] | – | 68.7 µM | 0.72 µM | – |
| CCOC(=O)C1=C(CN2CCN3C(=NC(C)=O)N(CC(C)(C)C(=O)O)CC3C2)NC(c2nccs2)=N[C@H]1c1cccc(F)c1C (stereo partly drawn) [Compound 8, (S)-3-(3-(Acetylimino)-7-((5-(ethoxycarbonyl)-6-(3-fluoro-2-methylphenyl)-2-(thiazol-2-yl)-3,6-dihydropyrimidin-4-yl)methyl)hexahydroimidazo[1,5-a]pyrazin-2(3H)-yl)-2,2-dimethylpropanoic acid] | – | > 100 µM | – | 0.79 µM |
